Data: patent US20230416225A1, “DIAMINOPYRIMIDINE CARBOXAMIDE INHIBITORS OF HPK1” (MERCK SHARP & DOHME LLC, priority 2020, published 2023)

Target: T1, Human HPK1, catalytic domain (Homo sapiens, UniProt Q92918)
T1 construct: purchased Carna
T1 sequence (Q92918 1-346): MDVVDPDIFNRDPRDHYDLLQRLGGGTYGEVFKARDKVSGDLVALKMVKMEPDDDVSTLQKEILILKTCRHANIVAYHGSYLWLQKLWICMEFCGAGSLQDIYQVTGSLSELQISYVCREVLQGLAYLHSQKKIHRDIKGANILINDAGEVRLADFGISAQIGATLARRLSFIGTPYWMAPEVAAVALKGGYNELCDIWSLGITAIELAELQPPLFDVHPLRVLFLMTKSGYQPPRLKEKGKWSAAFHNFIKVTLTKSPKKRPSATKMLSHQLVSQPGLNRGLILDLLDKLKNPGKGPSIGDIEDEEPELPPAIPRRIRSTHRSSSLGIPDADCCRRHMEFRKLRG
Assay: HPK1-SLP76 TR-FRET assay
Type: biochemical
Conditions: 75 pM HPK1, 10 uM ATP, 10 nM SLP76, 30 min compound pre-incubation

Question: For COc1cc(C(=O)N2CCN(C)CC2)ccc1Nc1ncc(C(N)=O)c(Nc2ccccc2C(F)(F)F)n1 [Example 11-1, 2-((2-methoxy-4-(4-methylpiperazine-1-carbonyl)phenyl)amino)-4-((2-(trifluoromethyl)phenyl)amino)pyrimidine-5-carboxamide], which IC50 is on record?
Answer: 869 nM

Question: With CCn1ncc(C)c1Nc1nc(Nc2cc3c(cc2OC)CCN(C)C3)ncc1C(N)=O [Example 7-93, 4-((1-ethyl-4-methyl-1H-pyrazol-5-yl)amino)-2-((6-methoxy-2-methyl-1,2,3,4-tetrahydroisoquinolin-7-yl)amino)pyrimidine-5-carboxamide] as the compound, how does the IC50 read?
Answer: 18.5 nM

Question: For COc1cc2c(cc1Nc1ncc(C(N)=O)c(Nc3cc(F)ccc3F)n1)CN(C)CC2 [Example 4-11, 4-[(2,5-difluorophenyl)amino]-2-[(6-methoxy-2-methyl-1,2,3,4-tetrahydroisoquinolin-7-yl)amino]pyrimidine-5-carboxamide], which IC50 is on record?
Answer: 0.55 nM

Question: For COc1cc2c(cc1Nc1ncc(C(N)=O)c(Nc3ccccc3Br)n1)CN(S(=O)(=O)C1CC1)CC2 [Example 10-8, 4-[(2-bromophenyl)amino]-2-{[2-(cyclopropylsulfonyl)-6-methoxy-1,2,3,4-tetrahydroisoquinolin-7-yl]amino}pyrimidine-5-carboxamide], which IC50 is on record?
Answer: 845 nM

Question: For NC(=O)c1cnc(Nc2cccc(C(F)(F)F)c2)nc1Nc1cccc2c1CCNC2=O [Example 25-18, 4-[(1-oxo-1,2,3,4-tetrahydroisoquinolin-5-yl)amino]-2-{[3-(trifluoromethyl)phenyl]amino}pyrimidine-5-carboxamide], which IC50 is on record?
Answer: 20.1 nM

Question: For CC(C)N1CCn2nc(Nc3ncc(C(N)=O)c(Nc4cccc5c4CCNC5)n3)cc2CC1=O [Example 24-1, 2-((6-isopropyl-5-oxo-5,6,7,8-tetrahydro-4H-pyrazolo[1,5-d][1,4]diazepin-2-yl)amino)-4-((1,2,3,4-tetrahydroisoquinolin-5-yl)amino)pyrimidine-5-carboxamide], which IC50 is on record?
Answer: 5.05 nM

Question: With COc1cc2c(cc1Nc1ncc(C(N)=O)c(Nc3ccccc3C(F)(F)F)n1)CN(C)C(C)C2 (racemic) [Example 23-3, (RAC)-2-((6-methoxy-2,3-dimethyl-1,2,3,4-tetrahydroisoquinolin-7-yl)amino)-4-((2-(trifluoromethyl)phenyl)amino)pyrimidine-5-carboxamide] as the compound, how does the IC50 read?
Answer: 0.28 nM

Question: Which IC50 does the source give for COc1cc2c(cc1Nc1ncc(C(N)=O)c(Nc3ccccc3C(F)(F)F)n1)C(C1CC1)N(C)CC2 (single isomer, unassigned) [Example 20-1, 2-((1-cyclopropyl-6-methoxy-2-methyl-1,2,3,4-tetrahydroisoquinolin-7-yl)amino)-4-((2-(trifluoromethyl)phenyl)amino)pyrimidine-5-carboxamide] here?
Answer: 1.62 nM

Question: Which IC50 does the source give for COc1cc2c(cc1Nc1ncc(C(N)=O)c(N[C@@H]3CCCC[C@H]3C(F)F)n1)CN(C)CC2 [Example 26-33, 4-{[(1R,2R)-2-(difluoromethyl)cyclohexyl]amino}-2-[(6-methoxy-2-methyl-1,2,3,4-tetrahydroisoquinolin-7-yl)amino]pyrimidine-5-carboxamide] here?
Answer: 0.46 nM

Question: For COc1cc2c(cc1Nc1ncc(C(N)=O)c(NCc3ccc(C#N)cc3)n1)CN(C)CC2 [Example 26-59, 4-{[(4-cyanophenyl)methyl]amino}-2-[(6-methoxy-2-methyl-1,2,3,4-tetrahydroisoquinolin-7-yl)amino]pyrimidine-5-carboxamide], which IC50 is on record?
Answer: 48.3 nM

Question: How did the IC50 turn out when COc1cc(C2CCNC2)ccc1Nc1ncc(C(N)=O)c(Nc2ccccc2Br)n1 (stereo not drawn) [Example 8-3, 4-((2-bromophenyl)amino)-2-((2-methoxy-4-(pyrrolidin-3-yl)phenyl)amino)pyrimidine-5-carboxamide] was run?
Answer: 9.48 nM

Question: COc1cc2c(cc1Nc1ncc(C(N)=O)c(N[C@@H]3c4ccccc4C[C@H]3O)n1)CN(C)CC2 [Example 26-65, 4-{[(1R,2R)-2-hydroxy-2,3-dihydro-1H-inden-1-yl]amino}-2-[(6-methoxy-2-methyl-1,2,3,4-tetrahydroisoquinolin-7-yl)amino]pyrimidine-5-carboxamide] was tested. Which IC50 did it give?
Answer: 17.8 nM

Question: Which IC50 does the source give for COc1cc2c(cc1Nc1ncc(C(N)=O)c(N[C@H]3c4ccccc4C[C@@H]3O)n1)CN(C)CC2 [Example 26-66, 4-{[(1S,2S)-2-hydroxy-2,3-dihydro-1H-inden-1-yl]amino}-2-[(6-methoxy-2-methyl-1,2,3,4-tetrahydroisoquinolin-7-yl)amino]pyrimidine-5-carboxamide] here?
Answer: 193 nM

Question: C#CC[C@H]1CCC[C@H]1Nc1nc(Nc2cc3c(cc2OC)CCN(C)C3)ncc1C(N)=O [Example 26-40, 2-[(6-methoxy-2-methyl-1,2,3,4-tetrahydroisoquinolin-7-yl)amino]-4-{[(1R,2R)-2-(prop-2-yn-1-yl)cyclopentyl]amino}pyrimidine-5-carboxamide] was tested. Which IC50 did it give?
Answer: 2.08 nM

Question: Which IC50 does the source give for COc1cc2c(cc1Nc1ncc(C(N)=O)c(Nc3cccc4c3CCNC4)n1)CN(C)CC2 [Example 7-4, 2-[(6-methoxy-2-methyl-1,2,3,4-tetrahydroisoquinolin-7-yl)amino]-4-[(1,2,3,4-tetrahydroisoquinolin-5-yl)amino]pyrimidine-5-carboxamide] here?
Answer: 0.07 nM

Question: With COc1cc2c(cc1Nc1ncc(C(N)=O)c(Nc3cccc(C)c3F)n1)CN(C)CC2 [Example 4-14] as the compound, how does the IC50 read?
Answer: 0.18 nM

Question: With Cc1ccc(C)c(Nc2ncc(C(N)=O)c(Nc3cccc4c3CCNC4=O)n2)c1 [Example 25-36, 2-[(2,5-dimethylphenyl)amino]-4-[(1-oxo-1,2,3,4-tetrahydroisoquinolin-5-yl)amino]pyrimidine-5-carboxamide] as the compound, how does the IC50 read?
Answer: 169 nM

Question: For COc1cc2c(cc1Nc1ncc(C(N)=O)c(Nc3ccccc3C3CC3)n1)CN(C)CC2 [Example 4-26, 4-[(2-cyclopropylphenyl)amino]-2-[(6-methoxy-2-methyl-1,2,3,4-tetrahydroisoquinolin-7-yl)amino]pyrimidine-5-carboxamide], which IC50 is on record?
Answer: 0.17 nM

Question: How did the IC50 turn out when COc1cc2c(cc1Nc1ncc(C(N)=O)c(Nc3cccc(C)c3)n1)CN(C)CC2 [Example 7-22, 2-[(6-methoxy-2-methyl-1,2,3,4-tetrahydroisoquinolin-7-yl)amino]-4-[(3-methylphenyl)amino]pyrimidine-5-carboxamide] was run?
Answer: 0.81 nM

Question: Cc1cccc(F)c1Nc1nc(Nc2c(C)n[nH]c2C)ncc1C(N)=O [Example 4-34, 2-[(3,5-dimethyl-1H-pyrazol-4-yl)amino]-4-[(2-fluoro-6-methylphenyl)amino] pyrimidine-5-carboxamide] was tested. Which IC50 did it give?
Answer: 65.1 nM

Question: How did the IC50 turn out when COc1cc2c(cc1Nc1ncc(C(N)=O)c(Nc3ccccc3Br)n1)CN(S(C)(=O)=O)CC2 [Example 10-5, 4-[(2-bromophenyl)amino]-2-{[6-methoxy-2-(methylsulfonyl)-1,2,3,4-tetrahydroisoquinolin-7-yl]amino}pyrimidine-5-carboxamide] was run?
Answer: 43.2 nM

Question: COc1cc2c(cc1Nc1ncc(C(N)=O)c(Nc3cccc(C(C)N)c3)n1)CN(C)CC2 (stereo not drawn) [Example 2-5, 4-{[3-(1-aminoethyl)phenyl]-amino}-2-[(6-methoxy-2-methyl-1,2,3,4-tetrahydroisoquinolin-7-yl)amino]pyrimidine-5-carboxamide] was tested. Which IC50 did it give?
Answer: 0.25 nM

Question: NC(=O)c1cnc(Nc2cnn(CC(F)(F)F)c2)nc1Nc1cccc2c1CCNC2=O [Example 7-45, 4-[(1-oxo-1,2,3,4-tetrahydroisoquinolin-5-yl)amino]-2-{[1-(2,2,2-trifluoroethyl)-1H-pyrazol-4-yl]amino}pyrimidine-5-carboxamide] was tested. Which IC50 did it give?
Answer: 19.5 nM

Question: COc1cc2c(cc1Nc1ncc(C(N)=O)c(Nc3ccccc3Br)n1)CN(S(=O)(=O)C(C)C)CC2 [Example 10-7, 4-[(2-bromophenyl)amino]-2-({6-methoxy-2-[(propan-2-yl)sulfonyl]-1,2,3,4-tetrahydroisoquinolin-7-yl}amino)pyrimidine-5-carboxamide] was tested. Which IC50 did it give?
Answer: 52.6 nM

Question: With COc1cc2c(cc1Nc1ncc(C(N)=O)c(NC3CCc4cccc(OC)c43)n1)CN(C)CC2 (stereo not drawn) [Example 26-34, 4-[(7-methoxy-2,3-dihydro-1H-inden-1-yl)amino]-2-[(6-methoxy-2-methyl-1,2,3,4-tetrahydroisoquinolin-7-yl)amino]pyrimidine-5-carboxamide] as the compound, how does the IC50 read?
Answer: 9.66 nM

Question: How did the IC50 turn out when CC(C)c1cccc(Nc2ncc(C(N)=O)c(Nc3cccc4c3CCNC4=O)n2)c1 [Example 25-28, 4-[(1-oxo-1,2,3,4-tetrahydroisoquinolin-5-yl)amino]-2-{[3-(propan-2-yl)phenyl]amino}pyrimidine-5-carboxamide] was run?
Answer: 3.72 nM

Question: How did the IC50 turn out when COc1cc2c(cc1Nc1ncc(C(N)=O)c(Nc3c(F)cc(I)cc3F)n1)CNCC2 [Example 9-12, 4-(2,6-difluoro-4-iodoanilino)-2-[(6-methoxy-1,2,3,4-tetrahydroisoquinolin-7-yl)amino]pyrimidine-5-carboxamide] was run?
Answer: 1.83 nM

Question: How did the IC50 turn out when COc1cc2c(cc1Nc1ncc(C(N)=O)c(NCc3ccccc3C(F)(F)F)n1)CN(C)CC2 [Example 26-21, 2-[(6-methoxy-2-methyl-1,2,3,4-tetrahydroisoquinolin-7-yl)amino]-4-({[2-(trifluoromethyl)phenyl]methyl}amino)pyrimidine-5-carboxamide] was run?
Answer: 0.22 nM

Question: For COc1cc2c(cc1Nc1ncc(C(N)=O)c(Nc3c(C)noc3C)n1)CN(C)CC2 [Example 7-83, 4-((3,5-dimethylisoxazol-4-yl)amino)-2-((6-methoxy-2-methyl-1,2,3,4-tetrahydroisoquinolin-7-yl)amino)pyrimidine-5-carboxamide], which IC50 is on record?
Answer: 4.84 nM

Question: With COc1cc2c(cc1Nc1ncc(C(N)=O)c(Nc3ccccc3CN)n1)CN(C)CC2 [Example 2-3, 4-{[2-(aminomethyl)phenyl]-amino}-2-[(6-methoxy-2-methy1-1,2,3,4-tetrahydroisoquinolin-7-yl)amino]pyrimidine-5-carboxamide] as the compound, how does the IC50 read?
Answer: 1.64 nM
